Assay results taken from PMC5218480 (PLoS ONE, 2017).

Tested on: MV-4-11 cells
Experiment: Gene expression microarray analysis (Affymetrix PrimeView) and GSEA
Type: cell-based, human
Set-up: RFU PODN (11730768_x_at) / Fold change /veh PODN (11730768_x_at) / RFU LINC00158 (11744669_a_at) / Fold change /veh LINC00158 (11744669_a_at) / RFU DUSP10 (11751237_a_at) / Fold change /veh DUSP10 (11751237_a_at) / RFU ID3 (11757404_x_at) / Fold change /veh ID3 (11757404_x_at) / RFU PLEKHG5 (11737974_s_at) / Fold change /veh PLEKHG5 (11737974_s_at) / RFU LRRC4B (11730491_at) / Fold change /veh LRRC4B (11730491_at) / RFU GIMAP4 (11747438_a_at) / Fold change /veh GIMAP4 (11747438_a_at) / RFU KRT8 (11758183_x_at) / Fold change /veh KRT8 (11758183_x_at) / RFU CNN1 (11734310_a_at) / Fold change /veh CNN1 (11734310_a_at) / RFU VPS37D (11726825_at) / Fold change /veh VPS37D (11726825_at) / RFU C10orf10 (11716522_x_at) / Fold change /veh C10orf10 (11716522_x_at) / RFU KIR2DL2 /// KIR2DL4 /// KIR2DL5A /// KIR2DL5B /// KIR2DS1 /// KIR2DS2 /// KIR2DS3 /// KIR2DS4 /// KIR3DL3 /// KIR3DL3 /// KIR3DS1 (11738374_at) / Fold change /veh KIR2DL2 /// KIR2DL4 /// KIR2DL5A /// KIR2DL5B /// KIR2DS1 /// KIR2DS2 /// KIR2DS3 /// KIR2DS4 /// KIR3DL3 /// KIR3DL3 /// KIR3DS1 (11738374_at) / RFU C1QL1 (11718748_at) / Fold change /veh C1QL1 (11718748_at) / RFU TMPRSS4 (11747572_a_at) / Fold change /veh TMPRSS4 (11747572_a_at) / RFU HAMP (11756126_x_at) / Fold change /veh HAMP (11756126_x_at) / RFU RNFT2 (11725882_a_at) / Fold change /veh RNFT2 (11725882_a_at) / RFU NR4A2 (11747474_a_at) / Fold change /veh NR4A2 (11747474_a_at) / RFU ABCC12 (11746883_a_at) / Fold change /veh ABCC12 (11746883_a_at) / RFU TMEM136 (11760407_x_at) / Fold change /veh TMEM136 (11760407_x_at) / RFU CLDN22 /// WWC2 (11732394_at) / Fold change /veh CLDN22 /// WWC2 (11732394_at) / RFU HLA-DPB1 (11760878_x_at) / Fold change /veh HLA-DPB1 (11760878_x_at) / RFU SPINT1 (11716480_a_at) / Fold change /veh SPINT1 (11716480_a_at) / RFU GAP43 (11754022_s_at) / Fold change /veh GAP43 (11754022_s_at) / RFU A4GNT (11735810_at) / Fold change /veh A4GNT (11735810_at) / RFU PRB3 (11715151_x_at) / Fold change /veh PRB3 (11715151_x_at) / RFU TUBB4B (11761932_at) / Fold change /veh TUBB4B (11761932_at) / RFU CAPN14 (11732068_a_at) / Fold change /veh CAPN14 (11732068_a_at) / RFU TMCC2 (11721928_a_at) / Fold change /veh TMCC2 (11721928_a_at) / RFU IRGQ (11745062_a_at) / Fold change /veh IRGQ (11745062_a_at) / RFU FAM174B (11720279_a_at) / Fold change /veh FAM174B (11720279_a_at) / RFU TMPRSS4 (11748680_a_at) / Fold change /veh TMPRSS4 (11748680_a_at) / RFU FAM212B (11763350_a_at) / Fold change /veh FAM212B (11763350_a_at) / RFU PLEKHG5 (11743358_a_at) / Fold change /veh PLEKHG5 (11743358_a_at) / RFU ZSCAN30 (11745921_a_at) / Fold change /veh ZSCAN30 (11745921_a_at) / RFU CMKLR1 (11741424_a_at) / Fold change /veh CMKLR1 (11741424_a_at) / RFU LOC101060620 /// MAPK8IP1 (11723275_at) / Fold change /veh LOC101060620 /// MAPK8IP1 (11723275_at) / RFU SPTSSB (11747773_x_at) / Fold change /veh SPTSSB (11747773_x_at) / RFU PRSS12 (11739890_at) / Fold change /veh PRSS12 (11739890_at) / RFU BIN1 (11741810_x_at) / Fold change /veh BIN1 (11741810_x_at) / RFU WNT11 (11732464_a_at) / Fold change /veh WNT11 (11732464_a_at) / RFU C10orf10 (11716521_a_at) / Fold change /veh C10orf10 (11716521_a_at) / RFU C5orf56 (11738089_at) / Fold change /veh C5orf56 (11738089_at) / RFU CYB561 (11721691_x_at) / Fold change /veh CYB561 (11721691_x_at) / RFU ANKRD19P (11752326_a_at) / Fold change /veh ANKRD19P (11752326_a_at) / RFU OR2T12 /// OR2T33 /// OR2T8 (11738714_s_at) / Fold change /veh OR2T12 /// OR2T33 /// OR2T8 (11738714_s_at) / RFU VCAN (11748164_a_at) / Fold change /veh VCAN (11748164_a_at) / RFU JSRP1 (11732532_at) / Fold change /veh JSRP1 (11732532_at) / RFU KRTAP10-11 (11738290_x_at) / Fold change /veh KRTAP10-11 (11738290_x_at) / RFU MYO3A (11730013_a_at) / Fold change /veh MYO3A (11730013_a_at) / RFU EBF3 (11725865_a_at) / Fold change /veh EBF3 (11725865_a_at) / RFU CAMK2N1 (11719241_x_at) / Fold change /veh CAMK2N1 (11719241_x_at) / RFU C5orf56 (11738088_a_at) / Fold change /veh C5orf56 (11738088_a_at) / RFU OLFML3 (11715873_a_at) / Fold change /veh OLFML3 (11715873_a_at) / RFU LOC100653217 /// NTM (11731650_a_at) / Fold change /veh LOC100653217 /// NTM (11731650_a_at) / RFU MAPK11 (11762145_a_at) / Fold change /veh MAPK11 (11762145_a_at) / RFU FIZ1 (11724087_x_at) / Fold change /veh FIZ1 (11724087_x_at) / RFU OASL (11726364_x_at) / Fold change /veh OASL (11726364_x_at) / RFU SOX15 (11748057_x_at) / Fold change /veh SOX15 (11748057_x_at) / RFU CD79A (11719716_a_at) / Fold change /veh CD79A (11719716_a_at) / RFU HIST1H1D (11736915_at) / Fold change /veh HIST1H1D (11736915_at) / RFU CASKIN2 (11723855_a_at) / Fold change /veh CASKIN2 (11723855_a_at) / RFU LOC730098 (11760151_x_at) / Fold change /veh LOC730098 (11760151_x_at) / RFU OR4N2 (11742367_at) / Fold change /veh OR4N2 (11742367_at) / RFU PRRT2 (11749266_a_at) / Fold change /veh PRRT2 (11749266_a_at) / RFU SNX32 (11753110_a_at) / Fold change /veh SNX32 (11753110_a_at) / RFU CDHR5 (11726645_a_at) / Fold change /veh CDHR5 (11726645_a_at) / RFU RCAN1 (11760418_a_at) / Fold change /veh RCAN1 (11760418_a_at) / RFU FAM167A (11723789_a_at) / Fold change /veh FAM167A (11723789_a_at) / RFU FAM26E (11764081_at) / Fold change /veh FAM26E (11764081_at) / RFU ISYNA1 (11749810_s_at) / Fold change /veh ISYNA1 (11749810_s_at) / RFU ACY1 (11761880_at) / Fold change /veh ACY1 (11761880_at) / RFU 11764098_at / Fold change /veh 11764098_at / RFU SAMD14 (11745864_x_at) / Fold change /veh SAMD14 (11745864_x_at) / RFU NPB (11741838_a_at) / Fold change /veh NPB (11741838_a_at) / RFU TMPRSS6 (11731388_a_at) / Fold change /veh TMPRSS6 (11731388_a_at) / RFU KRTAP10-2 (11738614_at) / Fold change /veh KRTAP10-2 (11738614_at) / RFU ARHGAP8 /// PRR5-ARHGAP8 (11727945_x_at) / Fold change /veh ARHGAP8 /// PRR5-ARHGAP8 (11727945_x_at) / RFU KRTAP5-7 /// NADSYN1 (11734609_at) / Fold change /veh KRTAP5-7 /// NADSYN1 (11734609_at) / RFU RASL12 (11751679_a_at) / Fold change /veh RASL12 (11751679_a_at) / RFU CDKN2B (11736163_a_at) / Fold change /veh CDKN2B (11736163_a_at) / RFU PRF1 (11729649_at) / Fold change /veh PRF1 (11729649_at) / RFU, ZNF638 /// ZNF638-IT1 / Fold change vs veh, ZNF638 /// ZNF638-IT1 / RFU, PANK3 / Fold change vs veh, PANK3 / RFU, SH3YL1 / Fold change vs veh, SH3YL1 / RFU, ZEB2 / Fold change vs veh, ZEB2 / RFU, NRIP1 / Fold change vs veh, NRIP1 / RFU, PTTG1IP / Fold change vs veh, PTTG1IP / RFU, CAPN2 / Fold change vs veh, CAPN2 / RFU, MED14 / Fold change vs veh, MED14 / RFU, SNORA58 / Fold change vs veh, SNORA58 / RFU, C1orf63 / Fold change vs veh, C1orf63 / RFU, LRRFIP1 / Fold change vs veh, LRRFIP1 / RFU, NDUFAF7 / Fold change vs veh, NDUFAF7 / RFU, SLC12A2 / Fold change vs veh, SLC12A2 / RFU, IBTK / Fold change vs veh, IBTK / RFU, ESF1 / Fold change vs veh, ESF1 / Fold change vs veh, TMEM50B / RFU, TAOK1 / Fold change vs veh, TAOK1 / RFU, ACBD3 / Fold change vs veh, ACBD3 / RFU, TMA16 / Fold change vs veh, TMA16 / RFU, RWDD3 / Fold change vs veh, RWDD3 / RFU, BCAT1 / Fold change vs veh, BCAT1 / RFU, EDEM3 / Fold change vs veh, EDEM3 / RFU, TMEM33 / Fold change vs veh, TMEM33 / RFU, WDR75 / Fold change vs veh, WDR75 / RFU, AHCTF1 / Fold change vs veh, AHCTF1 / RFU, TFRC / Fold change vs veh, TFRC / RFU, ZDHHC17 / Fold change vs veh, ZDHHC17 / RFU, NOM1 / Fold change vs veh, NOM1 / RFU, ARL8B / Fold change vs veh, ARL8B / RFU, ZBTB11 / Fold change vs veh, ZBTB11 / RFU, TAMM41 / Fold change vs veh, TAMM41 / RFU, KIAA1704 /// LOC100996395 / Fold change vs veh, KIAA1704 /// LOC100996395 / RFU, ING1 / Fold change vs veh, ING1 / RFU, TRMT61B / Fold change vs veh, TRMT61B / RFU, FUBP3 / Fold change vs veh, FUBP3 / RFU, TP53 / Fold change vs veh, TP53 / RFU, TNKS2 / Fold change vs veh, TNKS2 / RFU, ZFP14 / Fold change vs veh, ZFP14 / RFU, ACTR2 / Fold change vs veh, ACTR2 / RFU, PPP3R1 / Fold change vs veh, PPP3R1 / RFU, PIK3R1 / Fold change vs veh, PIK3R1 / RFU, HNRNPA1 / Fold change vs veh, HNRNPA1 / RFU, RNF170 / Fold change vs veh, RNF170 / RFU, ZNF28 / Fold change vs veh, ZNF28 / RFU, RNGTT / Fold change vs veh, RNGTT / RFU, OGT / Fold change vs veh, OGT / RFU, BRD1 / Fold change vs veh, BRD1 / RFU, MARS / Fold change vs veh, MARS / RFU, ZNF655 / Fold change vs veh, ZNF655 / RFU, FAHD1 / Fold change vs veh, FAHD1 / RFU, BDP1 / Fold change vs veh, BDP1 / RFU, LRRCC1 / Fold change vs veh, LRRCC1 / RFU, ARID1A / Fold change vs veh, ARID1A / RFU, ZNF146 / Fold change vs veh, ZNF146 / RFU, ZNF330 / Fold change vs veh, ZNF330 / RFU, GPN3 / Fold change vs veh, GPN3 / RFU, C9orf123 / Fold change vs veh, C9orf123 / RFU, N4BP2L2 / Fold change vs veh, N4BP2L2 / RFU, ARFIP1 / Fold change vs veh, ARFIP1 / RFU, FAM179B / Fold change vs veh, FAM179B / RFU, BCL10 / Fold change vs veh, BCL10 / RFU, UHRF1BP1L / Fold change vs veh, UHRF1BP1L / RFU, BET1 / Fold change vs veh, BET1 / RFU, CNOT2 / Fold change vs veh, CNOT2 / RFU, ZNF268 / Fold change vs veh, ZNF268 / Fold change vs veh, ZNF507 / RFU, DGCR2 / Fold change vs veh, DGCR2 / RFU, WDSUB1 / Fold change vs veh, WDSUB1 / Fold change vs veh, HSP90B1 /// MIR3652 / RFU, ADSS / Fold change vs veh, ADSS / RFU, GK / Fold change vs veh, GK / RFU, ZNF148 / Fold change vs veh, ZNF148 / RFU, TAF9 / Fold change vs veh, TAF9 / RFU, SLC1A5 / Fold change vs veh, SLC1A5 / RFU, SLMO2 / Fold change vs veh, SLMO2 / RFU, ABCC4 / Fold change vs veh, ABCC4 / RFU, LOC101060439 /// RAP1B / Fold change vs veh, LOC101060439 /// RAP1B / RFU, RFX7 / Fold change vs veh, RFX7 / RFU, GTPBP10 / Fold change vs veh, GTPBP10 / RFU, CNEP1R1 / Fold change vs veh, CNEP1R1 / RFU, BIVM-ERCC5 /// ERCC5 / Fold change vs veh, BIVM-ERCC5 /// ERCC5 / RFU, ILF3 / Fold change vs veh, ILF3 / RFU 11762660_at / Fold change /veh 11762660_at / RFU VCAN (11757783_s_at) / Fold change /veh VCAN (11757783_s_at) / RFU DDX43 (11728927_at) / Fold change /veh DDX43 (11728927_at) / RFU KRT8 (11758188_x_at) / Fold change /veh KRT8 (11758188_x_at) / RFU NKD1 (11759106_at) / Fold change /veh NKD1 (11759106_at) / RFU SRD5A1 (11742802_a_at) / Fold change /veh SRD5A1 (11742802_a_at) / RFU TPSAB1 /// TPSB2 (11721975_s_at) / Fold change /veh TPSAB1 /// TPSB2 (11721975_s_at) / RFU GSTM3 (11746129_a_at) / Fold change /veh GSTM3 (11746129_a_at) / RFU IL23R (11737362_x_at) / Fold change /veh IL23R (11737362_x_at) / RFU TMEM51 (11727254_a_at) / Fold change /veh TMEM51 (11727254_a_at) / RFU PIWIL2 (11732686_x_at) / Fold change /veh PIWIL2 (11732686_x_at) / RFU ORM1 (11744905_x_at) / Fold change /veh ORM1 (11744905_x_at) / RFU CCDC152 (11743942_at) / Fold change /veh CCDC152 (11743942_at) / RFU ECM1 (11717891_a_at) / Fold change /veh ECM1 (11717891_a_at) / RFU IL23R (11748794_a_at) / Fold change /veh IL23R (11748794_a_at) / RFU TNFAIP8L3 (11732012_x_at) / Fold change /veh TNFAIP8L3 (11732012_x_at) / RFU MBOAT4 (11741988_at) / Fold change /veh MBOAT4 (11741988_at) / RFU 11764193_at / Fold change /veh 11764193_at / RFU TMEM53 (11763286_at) / Fold change /veh TMEM53 (11763286_at) / RFU MAGEB2 (11727129_at) / Fold change /veh MAGEB2 (11727129_at) / RFU TMEM200A (11744735_a_at) / Fold change /veh TMEM200A (11744735_a_at) / RFU CCDC152 (11751479_a_at) / Fold change /veh CCDC152 (11751479_a_at) / RFU FAM211A (11726209_a_at) / Fold change /veh FAM211A (11726209_a_at) / RFU RGS16 (11746705_a_at) / Fold change /veh RGS16 (11746705_a_at) / RFU VCAN (11755009_s_at) / Fold change /veh VCAN (11755009_s_at) / RFU RHOB (11743442_s_at) / Fold change /veh RHOB (11743442_s_at) / RFU RGS16 (11720943_a_at) / Fold change /veh RGS16 (11720943_a_at) / RFU RGS16 (11720944_at) / Fold change /veh RGS16 (11720944_at) / RFU, VPS4B / Fold change vs veh, VPS4B / RFU, CREB1 / Fold change vs veh, CREB1 / RFU, DNAJC13 / Fold change vs veh, DNAJC13 / RFU, GNAQ / Fold change vs veh, GNAQ / RFU, CDK5R1 / Fold change vs veh, CDK5R1 / RFU, ZRANB3 / Fold change vs veh, ZRANB3 / RFU, CUL4A / Fold change vs veh, CUL4A / RFU, CCNY / Fold change vs veh, CCNY / RFU, UFL1 / Fold change vs veh, UFL1 / RFU, COG3 / Fold change vs veh, COG3 / RFU, DIAPH2 / Fold change vs veh, DIAPH2 / RFU, SKA2 / Fold change vs veh, SKA2 / RFU, AFF3 / Fold change vs veh, AFF3 / RFU, LMF1 / Fold change vs veh, LMF1 / RFU, IPO11 / Fold change vs veh, IPO11 / RFU, DFFB / Fold change vs veh, DFFB / RFU, FOXP1 / Fold change vs veh, FOXP1 / RFU, CARD8 / Fold change vs veh, CARD8 / RFU, STRN3 / Fold change vs veh, STRN3 / RFU, ADK / Fold change vs veh, ADK / RFU, RASSF2 / Fold change vs veh, RASSF2 / RFU, WIPF1 / Fold change vs veh, WIPF1 / RFU, LARP1B / Fold change vs veh, LARP1B / RFU, RASA1 / Fold change vs veh, RASA1 / RFU, RB1 / Fold change vs veh, RB1 / RFU, PPFIA1 / Fold change vs veh, PPFIA1 / RFU, MAT2A / Fold change vs veh, MAT2A / RFU, CCT5 / Fold change vs veh, CCT5 / RFU, WDR92 / Fold change vs veh, WDR92 / RFU, CUX1 / Fold change vs veh, CUX1 / RFU, TTC7A / Fold change vs veh, TTC7A / RFU, TMEM135 / Fold change vs veh, TMEM135 / RFU, DEPTOR / Fold change vs veh, DEPTOR / RFU, CPM / Fold change vs veh, CPM / RFU, DNAJB6 / Fold change vs veh, DNAJB6 / RFU, CACNA2D3 / Fold change vs veh, CACNA2D3 / RFU, DTX4 / Fold change vs veh, DTX4 / RFU, TFCP2 / Fold change vs veh, TFCP2 / RFU, GMCL1 /// GMCL1P1 / Fold change vs veh, GMCL1 /// GMCL1P1 / RFU, AEBP2 / Fold change vs veh, AEBP2 / RFU, SNHG1 /// SNORD22 /// SNORD25 /// SNORD26 /// SNORD27 /// SNORD28 /// SNORD29 /// SNORD31 / Fold change vs veh, SNHG1 /// SNORD22 /// SNORD25 /// SNORD26 /// SNORD27 /// SNORD28 /// SNORD29 /// SNORD31 / Fold change (Aza/veh), C12orf56 (ProbeSet 11735607_a_at) / Fold change (ACY-1035/veh), C12orf56 (ProbeSet 11735607_a_at) / Fold change (Aza/veh), FGFR1OP (ProbeSet 11751329_s_at) / Fold change (ACY-1035/veh), FGFR1OP (ProbeSet 11751329_s_at) / Fold change (Aza/veh), VPS36 (ProbeSet 11739960_a_at) / Fold change (ACY-1035/veh), VPS36 (ProbeSet 11739960_a_at) / RFU SYPL1 (11715823_x_at) / Fold change /veh SYPL1 (11715823_x_at) / RFU IGFBP7 (11715501_s_at) / Fold change /veh IGFBP7 (11715501_s_at) / RFU REEP3 (11722064_at) / Fold change /veh REEP3 (11722064_at) / RFU IGLL1 (11728026_x_at) / Fold change /veh IGLL1 (11728026_x_at): dose or concentration left out as unconfirmed
Settings: ProbeSet 11755436_x_at; LIST B

For `Nc1ncn([C@@H]2O[C@H](CO)[C@@H](O)[C@H]2O)c(=O)n1` [azacitidine], the “RFU, ARID1A” value was 63.57 RFU.
